From patent US10928381B2, “In vitro methods of monitoring autophagy in a human cell using a photoconvertable fluorescent protein linked biomarker” (The Regents of the University of Michigan, priority 2018, dated 2021)

System: Tandem reporter (RFP-GFP-LC3) HeLa cells
Assay: Tandem reporter (RFP-GFP-LC3) assay, % of RFP puncta that are GFP positive
Assay type: cell-based
Details: imaged after 12 hours
Description: FIG. 13A-E. Validation of novel autophagy inhibitors with an independent measure of autophagic flux. (FIG. 13A) Tandem reporter (RFP-GFP-LC3) HeLa cells treated with the indicated compounds and imaged after 12 hours in RFP (middle panels) GFP (bottom panels). […] Concentrations used correspond to the lowest dose resulting in the maximum degree of colocalization between GFP and RFP puncta as calculated in (B). These are: 3 nM Bafilomycin, 1 uM Quinacrine, 50 uM 245536, and 100 uM of 254522, 45808, 234794, and 237373. (Scale bar: 50 μm) (FIG. 13B) The percentage of RFP positive puncta that are also GFP positive in tandem reporter HeLa cells was analyzed using Cell Profiler. First GFP (1a) and RFP (1b) images of the same field of cells are uploaded into Cell Profiler. Using the GFP images, nuclei are identified (2a-green outlines) and a nuclear mask (2b) is generated. […] Cellular boundries are identified (3a-purple outlines) and a cellular mask is created. […] Only puncta within this mask will be evaluated in subsequent steps. […] (FIG. 13D) Tandem reporter HeLa cells were imaged once prior to drug treatment and then treated with the lowest dose that produced the maximum response as calculated in (FIG. 13C) and imaged immediately after. […] Each point is calculated by taking the mean % of (GFP+/RFP+ puncta)/(RFP+) from 8 technical replicates. […]

Compound: CO/C1=C\C(C)=C\[C@@H](C)[C@@H](O)[C@@H](C)C/C(C)=C/C=C/[C@H](OC)[C@@H]([C@@H](C)[C@@H](O)[C@H](C)[C@@]2(O)C[C@@H](O)[C@H](C)[C@@H](C(C)C)O2)OC1=O [Bafilomycin-A1, bafilomycin-A1]
- Lowest dose resulting in the maximum degree of colocalization between GFP and RFP puncta: 3 nM
